Among the test systems are IGROV1 ovarian; SF-539 CNS; NCI/ADR-RES ovarian; RPMI-8226 leukemia; LOX IMVI melanoma; BT-549 breast; MDA-MB-435; UO-31 renal; OVCAR-4 ovarian; HT29 colon.
Holding throughout (experiment): inhibition of tumour cell growth, NCI panel, 48 h

The results in this text go back to PubChem BioAssay (NCI).

Structures are written as SMILES.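 Method: 48-hour compound exposure of cells in 96-well plates, five concentrations, linear interpolation of endpoints. GI50 marks 50% less growth. TGI marks complete inhibition of growth.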 A value given as a limit tells only on which side of the number the result lay.

On to `O=C1/C(=C/c2cccc3ccccc23)CCc2ccc([N+](=O)[O-])cc21`, for which the TGI in the experiment with IGROV1 ovarian was more than 100 µM; with SF-539 CNS, 73.5 µM; in the experiment with NCI/ADR-RES ovarian it was more than 100 µM; in the experiment with RPMI-8226 leukemia it was more than 100 µM; in the experiment on LOX IMVI melanoma it was more than 100 µM; in the experiment on BT-549 breast, 45.5 µM. For the same compound, the TGI in the experiment with MDA-MB-435 is 22.6 µM; in the experiment on UO-31 renal it was more than 100 µM.
Regarding `C=C1CC(C)(c2cccc(Nc3nc4ccccc4c4occc34)c2)OC1=O` (stereo not given), the TGI in the experiment with OVCAR-4 ovarian is 20.4 µM; in the experiment with SF-539 CNS it was 3.47 µM; in the experiment with NCI/ADR-RES ovarian, 26.8 µM; in the experiment on RPMI-8226 leukemia, 4.62 µM; with BT-549 breast, 17.4 µM; with HT29 colon, 16.6 µM. Also, the TGI in the experiment with MDA-MB-435 turned out to be 21.8 µM; in the experiment with UO-31 renal, 5.04 µM.
For `S=C1SC(=Nc2ccccc2)C(=Nc2ccccc2)N1c1ccc2ccccc2c1`, the TGI in the experiment on OVCAR-4 ovarian, in the experiment with IGROV1 ovarian, with NCI/ADR-RES ovarian, in the experiment with RPMI-8226 leukemia, in the experiment on BT-549 breast and in the experiment with MDA-MB-435 was more than 100 µM each time. The TGI in the experiment with UO-31 renal is more than 100 µM.
Consider `C=C1C(C)C2C(Cc3ccccc3)NC(=O)C23OC(=O)/C=C\CC(=O)CCC(C)C/C=C/C3C1O` (stereo not given), for which the TGI with OVCAR-4 ovarian stood at 7.39 µM; in the experiment with IGROV1 ovarian it was 10.6 µM; in the experiment with SF-539 CNS, 4.39 µM; with NCI/ADR-RES ovarian, 33.4 µM; in the experiment on RPMI-8226 leukemia, 5.21 µM; in the experiment with LOX IMVI melanoma it was 3.64 µM. Besides, the TGI in the experiment on HT29 colon is 11.1 µM; in the experiment with UO-31 renal, 2.72 µM. For the same compound, the GI50 was 0.932 µM with RPMI-8226 leukemia and 0.913 µM with UO-31 renal.
For the compound `O=C1NC(Cc2ccc(O)cc2)C(=O)NC1Cc1ccc(O)cc1` (stereo not given), the TGI in the experiment with OVCAR-4 ovarian, in the experiment with IGROV1 ovarian, with SF-539 CNS, in the experiment with NCI/ADR-RES ovarian, with RPMI-8226 leukemia and in the experiment with LOX IMVI melanoma was more than 100 µM each time. For the same compound, the TGI in the experiment on HT29 colon, in the experiment on MDA-MB-435 and with UO-31 renal was more than 100 µM throughout.
For `CCCCCCCCC#CCCCCCCCCCC[C@@H]1C(=O)O[C@H](C)[C@@H]1O` (tested in a mixture with another compound), the TGI came out at 54.9 µM in the experiment with OVCAR-4 ovarian; 32.7 µM in the experiment on IGROV1 ovarian; 42.1 µM with SF-539 CNS; 23.8 µM in the experiment with NCI/ADR-RES ovarian; 39.9 µM in the experiment with RPMI-8226 leukemia; 28.8 µM with LOX IMVI melanoma. Also, the TGI in the experiment with BT-549 breast is 38.5 µM; in the experiment on UO-31 renal it was 35.3 µM.
`CCCCN(C)/N=N/c1nc[nH]c1C(N)=O`: the TGI with OVCAR-4 ovarian, with IGROV1 ovarian, in the experiment on SF-539 CNS, with NCI/ADR-RES ovarian, in the experiment on RPMI-8226 leukemia and in the experiment on LOX IMVI melanoma was more than 100 µM each time. For the same compound, the TGI in the experiment on HT29 colon and in the experiment on UO-31 renal was more than 100 µM in each case.
Take `O=c1c2ccccc2nc2ccc3c(Cl)[nH][nH]c3c12`: the TGI was more than 100 µM in the experiment with OVCAR-4 ovarian; more than 100 µM in the experiment on IGROV1 ovarian; more than 100 µM in the experiment on RPMI-8226 leukemia; 58.3 µM in the experiment with LOX IMVI melanoma; more than 100 µM with HT29 colon; more than 92.2 µM in the experiment with UO-31 renal.
`CC1(C)Oc2ccc3c(=O)cc(-c4ccccc4)oc3c2C1C(=O)O` (stereo not given): the TGI in the experiment with OVCAR-4 ovarian, in the experiment on IGROV1 ovarian, with SF-539 CNS, with NCI/ADR-RES ovarian, in the experiment on BT-549 breast and in the experiment with HT29 colon was more than 100 µM each time. The compound further came in with a TGI in the experiment with MDA-MB-435 of more than 100 µM.
As for `COc1ccc(C(=O)/C=C/c2cc(-c3cc(OC)c(OC)c(OC)c3)n[nH]2)cc1`, the GI50 with OVCAR-4 ovarian was 2.2 µM; in the experiment on IGROV1 ovarian, 2.21 µM; in the experiment on SF-539 CNS it was 1.62 µM; in the experiment on NCI/ADR-RES ovarian it was 2.76 µM; with RPMI-8226 leukemia, 0.433 µM; in the experiment with MDA-MB-435, 2.2 µM. The GI50 in the experiment on UO-31 renal was 1.45 µM. The TGI with OVCAR-4 ovarian came to 8.32 µM; in the experiment with IGROV1 ovarian it was 4.81 µM; with SF-539 CNS it was 3.08 µM; in the experiment on NCI/ADR-RES ovarian, 9.85 µM; in the experiment on RPMI-8226 leukemia, 2.49 µM; in the experiment with MDA-MB-435 it was 5.7 µM. Also, the TGI in the experiment on UO-31 renal was determined as 2.84 µM.
Take `O=C1C2C=CC(n3[nH]c(=O)n(Cc4ccccc4)c3=O)CC2C(=O)N1c1ccc(Br)cc1` (stereo not given): the TGI with OVCAR-4 ovarian, in the experiment on IGROV1 ovarian, in the experiment on SF-539 CNS, with RPMI-8226 leukemia, with LOX IMVI melanoma and in the experiment with HT29 colon was more than 100 µM each time. Besides, the TGI in the experiment on UO-31 renal was more than 100 µM.
For the compound `O=[N+]([O-])/C(C(Cl)=C(Cl)Cl)=C(/Nc1cccc2cccnc12)n1nnc2ccccc21`, the TGI in the experiment on OVCAR-4 ovarian is 45.7 µM; with SF-539 CNS, 38.2 µM; with NCI/ADR-RES ovarian, 53.7 µM; with RPMI-8226 leukemia, 83.6 µM; in the experiment with BT-549 breast, 35.8 µM; in the experiment with HT29 colon, 40.5 µM. Further, the TGI with MDA-MB-435 came to 33 µM; with UO-31 renal, 29.9 µM.
For the compound `CC(=O)OCC1OC(n2c(C)c(C)c(C)c(C#N)c2=S)C(OC(C)=O)C(OC(C)=O)C1OC(C)=O` (stereo not given), the TGI in the experiment on OVCAR-4 ovarian, in the experiment on IGROV1 ovarian, with SF-539 CNS, in the experiment with NCI/ADR-RES ovarian, in the experiment on LOX IMVI melanoma and in the experiment with HT29 colon was more than 100 µM in each case. Further, the TGI in the experiment with MDA-MB-435 is more than 100 µM; with UO-31 renal it was 59.7 µM.
For the compound `COc1cc(Oc2nc3cc(F)c(F)cc3nc2-c2ccccc2)cc(OC)c1OC`, the TGI is more than 100 µM in the experiment on OVCAR-4 ovarian; more than 100 µM in the experiment with IGROV1 ovarian; 58.7 µM in the experiment on SF-539 CNS; more than 100 µM with NCI/ADR-RES ovarian; more than 100 µM in the experiment on LOX IMVI melanoma; more than 100 µM in the experiment with BT-549 breast. The TGI with HT29 colon, with MDA-MB-435 and with UO-31 renal was more than 100 µM throughout.
Turning to `CC(=O)C(C)(C)CCC(C)(C)C(C)=O`, the TGI in the experiment on OVCAR-4 ovarian, in the experiment with IGROV1 ovarian, in the experiment with SF-539 CNS, with NCI/ADR-RES ovarian, in the experiment on LOX IMVI melanoma and with BT-549 breast was more than 100 µM throughout. Besides, the TGI in the experiment on HT29 colon and in the experiment with UO-31 renal was more than 100 µM in each case.
